Results: ChEMBL document CHEMBL1144455, “A small molecule-kinase interaction map for clinical kinase inhibitors” (Nat Biotechnol, 2005)

Experiments:
[1] = biological target: T1, Serine/threonine-protein kinase 17A (Homo sapiens, UniProt Q9UEE5)
T1 sequence (Q9UEE5 whole entry): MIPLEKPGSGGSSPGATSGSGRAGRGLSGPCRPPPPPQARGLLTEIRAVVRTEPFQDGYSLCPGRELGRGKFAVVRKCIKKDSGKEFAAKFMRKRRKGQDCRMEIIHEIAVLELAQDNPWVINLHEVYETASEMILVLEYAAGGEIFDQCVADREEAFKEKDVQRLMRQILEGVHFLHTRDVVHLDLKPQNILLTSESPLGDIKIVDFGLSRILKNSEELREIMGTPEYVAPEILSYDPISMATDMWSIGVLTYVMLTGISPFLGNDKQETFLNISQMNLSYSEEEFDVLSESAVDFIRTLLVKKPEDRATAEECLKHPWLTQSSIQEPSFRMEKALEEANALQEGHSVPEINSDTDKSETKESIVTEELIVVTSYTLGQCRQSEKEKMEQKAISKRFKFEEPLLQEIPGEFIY

[2] = biological target: T2, Serine/threonine-protein kinase Nek9 (Homo sapiens, UniProt Q8TD19)
T2 sequence (Q8TD19 whole entry): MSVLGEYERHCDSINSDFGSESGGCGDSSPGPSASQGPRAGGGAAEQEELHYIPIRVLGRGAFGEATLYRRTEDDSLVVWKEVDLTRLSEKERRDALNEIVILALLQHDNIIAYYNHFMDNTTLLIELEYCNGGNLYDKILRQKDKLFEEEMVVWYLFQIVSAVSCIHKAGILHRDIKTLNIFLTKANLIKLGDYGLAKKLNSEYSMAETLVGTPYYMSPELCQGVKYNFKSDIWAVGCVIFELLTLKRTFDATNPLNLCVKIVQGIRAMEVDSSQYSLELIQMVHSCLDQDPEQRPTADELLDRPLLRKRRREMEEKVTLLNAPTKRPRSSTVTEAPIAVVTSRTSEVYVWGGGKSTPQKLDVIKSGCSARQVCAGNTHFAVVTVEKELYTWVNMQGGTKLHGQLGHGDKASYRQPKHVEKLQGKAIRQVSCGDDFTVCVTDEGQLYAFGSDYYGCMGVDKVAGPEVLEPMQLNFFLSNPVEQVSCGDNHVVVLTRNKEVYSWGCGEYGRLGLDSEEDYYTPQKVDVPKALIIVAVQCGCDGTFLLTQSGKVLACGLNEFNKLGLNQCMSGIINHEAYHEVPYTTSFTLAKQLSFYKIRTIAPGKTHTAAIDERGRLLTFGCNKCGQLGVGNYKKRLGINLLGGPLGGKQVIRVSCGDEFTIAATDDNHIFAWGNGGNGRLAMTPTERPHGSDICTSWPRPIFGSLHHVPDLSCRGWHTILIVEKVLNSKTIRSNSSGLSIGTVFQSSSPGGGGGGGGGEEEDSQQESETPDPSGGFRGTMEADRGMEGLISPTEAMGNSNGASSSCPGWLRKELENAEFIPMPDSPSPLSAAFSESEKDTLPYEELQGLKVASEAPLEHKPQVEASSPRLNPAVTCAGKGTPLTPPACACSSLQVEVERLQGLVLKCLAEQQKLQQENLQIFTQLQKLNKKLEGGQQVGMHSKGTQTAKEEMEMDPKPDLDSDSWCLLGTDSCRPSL

[3] = biological target: T3, Dual specificity protein kinase TTK (Homo sapiens, UniProt P33981)
T3 sequence (P33981 whole entry): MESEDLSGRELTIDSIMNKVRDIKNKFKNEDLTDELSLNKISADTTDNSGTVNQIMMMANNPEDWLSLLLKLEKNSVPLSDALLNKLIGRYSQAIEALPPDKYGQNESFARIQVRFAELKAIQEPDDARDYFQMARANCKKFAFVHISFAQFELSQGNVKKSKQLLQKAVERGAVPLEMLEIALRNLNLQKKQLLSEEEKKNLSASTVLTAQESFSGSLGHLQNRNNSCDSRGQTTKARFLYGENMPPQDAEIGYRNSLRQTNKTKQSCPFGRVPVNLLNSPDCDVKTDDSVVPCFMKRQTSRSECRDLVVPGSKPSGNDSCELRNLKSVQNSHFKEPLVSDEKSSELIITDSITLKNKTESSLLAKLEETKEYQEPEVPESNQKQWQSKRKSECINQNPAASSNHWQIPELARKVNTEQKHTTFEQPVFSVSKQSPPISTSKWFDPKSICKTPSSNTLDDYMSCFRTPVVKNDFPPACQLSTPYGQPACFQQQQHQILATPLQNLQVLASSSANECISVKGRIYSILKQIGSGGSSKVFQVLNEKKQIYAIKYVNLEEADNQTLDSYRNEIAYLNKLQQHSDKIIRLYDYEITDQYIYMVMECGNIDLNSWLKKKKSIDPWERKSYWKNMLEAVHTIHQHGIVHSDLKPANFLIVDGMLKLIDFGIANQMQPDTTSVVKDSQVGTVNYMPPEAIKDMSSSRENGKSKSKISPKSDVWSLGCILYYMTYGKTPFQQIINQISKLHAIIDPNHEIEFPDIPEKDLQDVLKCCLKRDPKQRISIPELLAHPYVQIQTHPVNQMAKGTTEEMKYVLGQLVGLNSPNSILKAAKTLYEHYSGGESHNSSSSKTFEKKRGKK

Activated CDC42 kinase 1 = Activated CDC42 kinase 1 (Homo sapiens, UniProt Q07912)
Focal adhesion kinase 1 = Focal adhesion kinase 1 (Homo sapiens, UniProt Q05397)
Focal adhesion kinase 1, sequence (Q05397 whole entry): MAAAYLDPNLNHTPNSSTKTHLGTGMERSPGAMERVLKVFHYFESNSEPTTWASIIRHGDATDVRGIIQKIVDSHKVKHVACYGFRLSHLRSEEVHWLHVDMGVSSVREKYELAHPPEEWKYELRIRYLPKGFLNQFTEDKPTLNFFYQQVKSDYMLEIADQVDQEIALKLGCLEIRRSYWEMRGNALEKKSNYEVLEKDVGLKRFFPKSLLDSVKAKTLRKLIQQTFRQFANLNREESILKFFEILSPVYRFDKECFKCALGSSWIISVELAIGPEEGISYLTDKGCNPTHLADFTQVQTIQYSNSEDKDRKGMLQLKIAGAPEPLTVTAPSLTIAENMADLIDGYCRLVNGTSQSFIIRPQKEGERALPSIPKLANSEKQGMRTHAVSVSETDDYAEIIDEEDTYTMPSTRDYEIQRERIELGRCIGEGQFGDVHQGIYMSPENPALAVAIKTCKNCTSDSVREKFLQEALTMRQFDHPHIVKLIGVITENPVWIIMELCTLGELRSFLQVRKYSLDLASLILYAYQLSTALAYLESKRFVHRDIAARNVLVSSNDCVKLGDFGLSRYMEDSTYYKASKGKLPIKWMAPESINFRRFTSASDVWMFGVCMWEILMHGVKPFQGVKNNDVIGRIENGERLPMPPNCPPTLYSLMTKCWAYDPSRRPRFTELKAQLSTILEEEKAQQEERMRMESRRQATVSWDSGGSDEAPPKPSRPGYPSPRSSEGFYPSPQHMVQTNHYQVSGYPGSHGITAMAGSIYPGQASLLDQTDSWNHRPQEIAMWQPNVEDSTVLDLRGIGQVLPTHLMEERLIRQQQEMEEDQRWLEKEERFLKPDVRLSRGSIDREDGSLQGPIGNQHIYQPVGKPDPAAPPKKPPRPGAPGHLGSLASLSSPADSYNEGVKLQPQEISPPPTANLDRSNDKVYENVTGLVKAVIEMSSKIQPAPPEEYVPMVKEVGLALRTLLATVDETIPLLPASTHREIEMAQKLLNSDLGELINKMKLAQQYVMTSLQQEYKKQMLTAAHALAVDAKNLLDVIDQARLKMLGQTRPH

[4] = biological target: Tyrosine-protein kinase Lyn (Homo sapiens, UniProt P07948)
Tyrosine-protein kinase Lyn, sequence (P07948 whole entry): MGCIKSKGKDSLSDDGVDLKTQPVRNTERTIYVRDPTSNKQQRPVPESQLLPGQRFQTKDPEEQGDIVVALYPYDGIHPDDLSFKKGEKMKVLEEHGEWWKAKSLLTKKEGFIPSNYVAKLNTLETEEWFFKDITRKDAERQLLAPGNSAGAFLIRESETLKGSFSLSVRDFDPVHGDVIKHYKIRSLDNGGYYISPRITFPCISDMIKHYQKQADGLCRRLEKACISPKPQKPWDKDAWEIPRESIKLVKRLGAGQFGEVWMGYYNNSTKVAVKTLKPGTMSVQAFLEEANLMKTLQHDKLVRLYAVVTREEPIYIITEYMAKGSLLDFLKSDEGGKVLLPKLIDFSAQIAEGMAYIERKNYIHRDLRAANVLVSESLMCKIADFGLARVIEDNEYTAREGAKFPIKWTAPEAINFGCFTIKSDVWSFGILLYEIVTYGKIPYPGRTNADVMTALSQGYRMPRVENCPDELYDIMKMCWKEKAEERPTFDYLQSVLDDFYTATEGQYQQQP

[5] = biological target: Calcium/calmodulin-dependent protein kinase type II subunit gamma (Homo sapiens, UniProt Q13555)
Calcium/calmodulin-dependent protein kinase type II subunit gamma, sequence (Q13555 whole entry): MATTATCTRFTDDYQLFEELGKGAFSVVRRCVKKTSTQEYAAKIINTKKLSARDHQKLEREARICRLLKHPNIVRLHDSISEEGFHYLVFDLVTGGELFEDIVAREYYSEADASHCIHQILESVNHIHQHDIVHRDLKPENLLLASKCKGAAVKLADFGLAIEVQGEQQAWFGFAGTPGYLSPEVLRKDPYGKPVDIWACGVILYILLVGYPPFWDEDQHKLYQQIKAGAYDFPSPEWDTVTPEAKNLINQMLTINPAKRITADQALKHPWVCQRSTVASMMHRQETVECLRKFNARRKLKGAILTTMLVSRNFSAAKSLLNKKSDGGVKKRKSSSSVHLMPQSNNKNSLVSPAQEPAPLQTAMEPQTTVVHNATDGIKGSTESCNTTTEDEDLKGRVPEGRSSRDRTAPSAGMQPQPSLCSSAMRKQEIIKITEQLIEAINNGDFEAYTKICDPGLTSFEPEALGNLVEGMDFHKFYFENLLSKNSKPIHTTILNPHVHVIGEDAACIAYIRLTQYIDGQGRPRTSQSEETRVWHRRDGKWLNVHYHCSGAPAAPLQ

Ephrin type-A receptor 7 = Ephrin type-A receptor 7 (Homo sapiens, UniProt Q15375)
Ephrin type-A receptor 2 = Ephrin type-A receptor 2 (Homo sapiens, UniProt P29317)
Ephrin type-A receptor 2, sequence (P29317 whole entry): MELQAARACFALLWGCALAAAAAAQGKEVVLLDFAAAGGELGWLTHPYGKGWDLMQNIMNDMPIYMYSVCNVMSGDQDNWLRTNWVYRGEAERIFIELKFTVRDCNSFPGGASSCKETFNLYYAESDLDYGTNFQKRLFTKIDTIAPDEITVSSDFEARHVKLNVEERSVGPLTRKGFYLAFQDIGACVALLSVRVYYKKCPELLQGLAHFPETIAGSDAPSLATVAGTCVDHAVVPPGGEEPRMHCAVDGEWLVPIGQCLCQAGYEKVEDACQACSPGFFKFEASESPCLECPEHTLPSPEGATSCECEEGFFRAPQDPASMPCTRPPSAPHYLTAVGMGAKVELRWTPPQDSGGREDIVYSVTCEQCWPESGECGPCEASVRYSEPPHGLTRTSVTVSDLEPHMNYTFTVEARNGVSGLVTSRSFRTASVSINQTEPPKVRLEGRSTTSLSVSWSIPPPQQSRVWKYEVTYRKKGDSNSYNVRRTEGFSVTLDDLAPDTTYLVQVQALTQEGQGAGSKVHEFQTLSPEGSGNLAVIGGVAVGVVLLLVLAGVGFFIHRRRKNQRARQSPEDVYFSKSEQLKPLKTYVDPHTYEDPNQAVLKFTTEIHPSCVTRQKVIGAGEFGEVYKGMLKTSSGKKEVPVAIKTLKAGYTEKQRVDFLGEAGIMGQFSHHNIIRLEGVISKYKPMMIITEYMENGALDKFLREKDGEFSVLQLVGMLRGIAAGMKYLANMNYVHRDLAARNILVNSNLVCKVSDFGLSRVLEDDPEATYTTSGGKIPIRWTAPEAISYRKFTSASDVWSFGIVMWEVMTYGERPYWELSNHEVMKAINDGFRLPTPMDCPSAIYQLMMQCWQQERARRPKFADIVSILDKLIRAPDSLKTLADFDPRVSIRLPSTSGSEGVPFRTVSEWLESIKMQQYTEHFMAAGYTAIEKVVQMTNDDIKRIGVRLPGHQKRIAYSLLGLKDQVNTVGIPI

[6] = biological target: Tyrosine-protein kinase Fgr (Homo sapiens, UniProt P09769)
Tyrosine-protein kinase Fgr, sequence (P09769 whole entry): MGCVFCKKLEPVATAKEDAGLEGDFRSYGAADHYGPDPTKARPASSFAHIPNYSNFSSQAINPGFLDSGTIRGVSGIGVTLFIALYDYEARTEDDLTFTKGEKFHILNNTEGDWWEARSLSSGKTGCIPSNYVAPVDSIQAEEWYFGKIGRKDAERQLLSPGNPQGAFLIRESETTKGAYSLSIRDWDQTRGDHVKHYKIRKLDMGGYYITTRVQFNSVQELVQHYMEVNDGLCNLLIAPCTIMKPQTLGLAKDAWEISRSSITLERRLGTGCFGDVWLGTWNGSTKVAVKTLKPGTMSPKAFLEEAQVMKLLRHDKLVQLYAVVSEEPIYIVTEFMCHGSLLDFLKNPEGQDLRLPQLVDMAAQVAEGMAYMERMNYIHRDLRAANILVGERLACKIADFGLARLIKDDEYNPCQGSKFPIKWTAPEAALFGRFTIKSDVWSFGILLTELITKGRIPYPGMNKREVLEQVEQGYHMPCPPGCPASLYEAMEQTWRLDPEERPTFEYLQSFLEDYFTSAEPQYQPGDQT

[7] = biological target: Calcium/calmodulin-dependent protein kinase type 1 (Homo sapiens, UniProt Q14012)
[8] = biological target: Ribosomal protein S6 kinase alpha-5 (Homo sapiens, UniProt O75582)
[9] = biological target: Cyclin-dependent kinase 5 (Homo sapiens, UniProt Q00535)
[10] = biological target: Serine/threonine-protein kinase pim-2 (Homo sapiens, UniProt Q9P1W9)
Serine/threonine-protein kinase pim-2, sequence (Q9P1W9 whole entry): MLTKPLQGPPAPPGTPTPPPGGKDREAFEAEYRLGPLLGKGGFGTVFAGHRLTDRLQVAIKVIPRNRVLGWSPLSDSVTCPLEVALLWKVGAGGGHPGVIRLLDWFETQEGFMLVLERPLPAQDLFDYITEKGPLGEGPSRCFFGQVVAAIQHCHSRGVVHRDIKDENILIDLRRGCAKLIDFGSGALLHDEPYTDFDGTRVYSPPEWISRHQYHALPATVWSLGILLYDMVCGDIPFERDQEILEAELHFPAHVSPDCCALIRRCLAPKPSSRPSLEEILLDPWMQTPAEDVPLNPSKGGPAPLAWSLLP

[11] = biological target: Tyrosine-protein kinase Yes (Homo sapiens, UniProt P07947)
Tyrosine-protein kinase Yes, sequence (P07947 whole entry): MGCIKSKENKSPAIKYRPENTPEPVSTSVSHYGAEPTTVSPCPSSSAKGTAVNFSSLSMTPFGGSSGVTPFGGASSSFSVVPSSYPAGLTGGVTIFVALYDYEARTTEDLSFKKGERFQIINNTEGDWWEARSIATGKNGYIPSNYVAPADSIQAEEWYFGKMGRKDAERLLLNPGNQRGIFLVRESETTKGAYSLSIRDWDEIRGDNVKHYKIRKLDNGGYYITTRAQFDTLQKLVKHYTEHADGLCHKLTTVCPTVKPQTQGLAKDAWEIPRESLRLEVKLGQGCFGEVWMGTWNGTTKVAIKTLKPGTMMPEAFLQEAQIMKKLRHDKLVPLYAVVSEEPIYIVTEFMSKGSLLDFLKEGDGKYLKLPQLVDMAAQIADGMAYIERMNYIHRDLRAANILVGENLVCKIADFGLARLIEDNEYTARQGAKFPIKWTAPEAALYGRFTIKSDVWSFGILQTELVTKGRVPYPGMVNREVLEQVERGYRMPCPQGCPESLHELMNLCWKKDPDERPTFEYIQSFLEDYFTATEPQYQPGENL

[12] = biological target: Receptor-interacting serine/threonine-protein kinase 2 (Homo sapiens, UniProt O43353)
Receptor-interacting serine/threonine-protein kinase 2, sequence (O43353 whole entry): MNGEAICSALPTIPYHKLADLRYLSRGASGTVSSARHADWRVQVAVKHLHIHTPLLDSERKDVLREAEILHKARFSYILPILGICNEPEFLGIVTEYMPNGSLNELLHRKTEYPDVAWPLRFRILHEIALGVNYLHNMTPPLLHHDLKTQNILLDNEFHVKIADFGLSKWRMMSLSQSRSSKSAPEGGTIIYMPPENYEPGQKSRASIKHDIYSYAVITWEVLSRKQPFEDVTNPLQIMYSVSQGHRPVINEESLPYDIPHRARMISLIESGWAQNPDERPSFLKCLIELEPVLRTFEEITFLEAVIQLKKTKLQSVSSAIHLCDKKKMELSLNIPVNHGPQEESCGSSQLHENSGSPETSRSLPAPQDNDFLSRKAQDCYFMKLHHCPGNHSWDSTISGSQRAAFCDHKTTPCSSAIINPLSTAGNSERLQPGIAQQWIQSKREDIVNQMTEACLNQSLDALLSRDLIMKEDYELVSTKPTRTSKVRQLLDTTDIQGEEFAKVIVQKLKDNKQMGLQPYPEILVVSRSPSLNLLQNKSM

Measured: Kd

C#Cc1cccc(Nc2ncnc3cc(OCCOC)c(OCCOC)cc23)c1 [ERLOTINIB]
Not Active: [1] | [2] | [3] | Activated CDC42 kinase 1 | Focal adhesion kinase 1 | [4] | [5] | Ephrin type-A receptor 7 | Ephrin type-A receptor 2 | [6] | [7] | [8] | [9] | [10] | [11]

Cc1ccc(NC(=O)c2ccc(CN3CCN(C)CC3)cc2)cc1Nc1nccc(-c2cccnc2)n1 [IMATINIB]
Not Active: [2] | [3] | Activated CDC42 kinase 1 | Focal adhesion kinase 1 | [4] | [5] | Ephrin type-A receptor 7 | [12] | Ephrin type-A receptor 2 | [6] | [7] | [8] | [9] | [10] | [11]

CCOc1cc2ncc(C#N)c(Nc3ccc(F)c(Cl)c3)c2cc1NC(=O)/C=C/CN(C)C [PELITINIB]
Not Active: [2] | [3] | [5] | Ephrin type-A receptor 7 | [12] | Ephrin type-A receptor 2 | [6] | [7] | [8] | [9] | [10]

Oc1ccc(-c2nc(-c3ccc(F)cc3)c(-c3ccncc3)[nH]2)cc1 [SB-202190]
Not Active: [1] | [2] | [3] | Activated CDC42 kinase 1 | Focal adhesion kinase 1 | [4] | [5] | Ephrin type-A receptor 7 | Ephrin type-A receptor 2 | [6] | [7] | [8] | [9] | [10] | [11]

Oc1c2ccccc2c2c3c(cccc13)N=N2 [SP-600125]
Not Active: [2] | Activated CDC42 kinase 1 | Focal adhesion kinase 1 | [4] | [5] | Ephrin type-A receptor 7 | [12] | Ephrin type-A receptor 2 | [6] | [11]
